What all share (assay): relative viability (nuclei count vs DMSO), 5 days (fraction); higher = more cells survive
Compound in the assay “Vemurafenib + Phenformin”: CCCS(=O)(=O)Nc1ccc(F)c(C(=O)c2c[nH]c3ncc(-c4ccc(Cl)cc4)cc23)c1F [Vemurafenib] + N=C(N)NC(=N)NCCc1ccccc1 [Phenformin] (partner 250 µM)
A digest of the protocol:
(§1)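 For relative viability, nuclei counts in treated wells were divided by those in vehicle wells. Lung cancer cell lines had been pin-tool dosed in 1536-well plates the day after seeding and cultured for 5 days, then fixed and stained in one step (final 0.05% Triton X-100, 1% formaldehyde, 1 ug/ml Hoechst) and imaged at 4×. Doses were one drug alone or a fixed anchor-drug dose plus five library-drug doses (not always all listed) in √10 steps, and values are duplicate-plate medians.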

Compound in the assay “OSI-027 + Olaparib”: COc1cccc2cc(-c3nc([C@H]4CC[C@H](C(=O)O)CC4)n4ncnc(N)c34)[nH]c12 [OSI-027] + O=C(c1cc(Cc2n[nH]c(=O)c3ccccc23)ccc1F)N1CCN(C(=O)C2CC2)CC1 [Olaparib] (partner 8 µM)
The essentials: as §1

Compound in the assay “OSI-027 + Trametinib”: COc1cccc2cc(-c3nc([C@H]4CC[C@H](C(=O)O)CC4)n4ncnc(N)c34)[nH]c12 [OSI-027] + CC(=O)Nc1cccc(-n2c(=O)n(C3CC3)c(=O)c3c(Nc4ccc(I)cc4F)n(C)c(=O)c(C)c32)c1 [Trametinib] (partner 0.02 µM)
The essentials:
as §1

Compound in the assay “OSI-027 + Tozasertib”: COc1cccc2cc(-c3nc([C@H]4CC[C@H](C(=O)O)CC4)n4ncnc(N)c34)[nH]c12 [OSI-027] + Cc1cc(Nc2cc(N3CCN(C)CC3)nc(Sc3ccc(NC(=O)C4CC4)cc3)n2)n[nH]1 [Tozasertib] (partner 0.1 µM)
The essentials: as §1

As to UMC-11, the relative viability was determined as 0.29 with Vemurafenib + Phenformin (first compound 0.03162 µM); 0.315 in the assay with Vemurafenib + Phenformin (first compound 0.1 µM); 0.227 in the assay with Vemurafenib + Phenformin (first compound 0.3162 µM); 0.315 in the assay with Vemurafenib + Phenformin (first compound 1 µM); 0.388 in the assay with OSI-027 + Olaparib (first compound 0.01 µM); 0.42 in the assay with OSI-027 + Olaparib (first compound 0.03162 µM). Further, the relative viability amounted to 0.31 with OSI-027 + Olaparib (first compound 0.1 µM); 0.349 with OSI-027 + Olaparib (first compound 0.3162 µM); 0.291 in the assay with OSI-027 + Olaparib (first compound 1 µM); 0.727 with OSI-027 + Trametinib (first compound 0.01 µM); 0.772 in the assay with OSI-027 + Trametinib (first compound 0.03162 µM); 0.579 in the assay with OSI-027 + Trametinib (first compound 0.1 µM). Also, the relative viability with OSI-027 + Trametinib (first compound 0.3162 µM) came out at 0.472; with OSI-027 + Trametinib (first compound 1 µM), 0.392; with OSI-027 + Tozasertib (first compound 0.01 µM) it was 0.235; with OSI-027 + Tozasertib (first compound 0.03162 µM), 0.208; with OSI-027 + Tozasertib (first compound 0.1 µM) it was 0.203; with OSI-027 + Tozasertib (first compound 0.3162 µM), 0.204. In addition, the relative viability with OSI-027 + Tozasertib (first compound 1 µM) came out at 0.2.
